Reference: US10344330B2, “Glatiramer acetate response biomarker mRNA potency assay” (Mylan Inc., priority 2013, dated 2019)
“And” between values parts separate entries of the source, which are not always exact repeats. Identical values can stand only once.

Legend:
mIL-2 mRNA in LN cells = mIL-2 mRNA in LN cells of Copaxone P53974-immunized CSJLF1/JRj mice, three identical experiments, GAPDH and β-actin reference (Example VII); format: cell-based, mouse; details: 2.5 μg/mL, 6 hours
Procedure: (§1) A real-time polymerase chain reaction method was used to measure the expression of IL-2, IL-4, IL-5, and IL-13 mRNA in GA-stimulated LN cells from GA-immunized mice. Three identical experiments were carried out. In each experiment, mice were immunized with GA, and LN cells from each group of mice were stimulated with each of six concentrations of the same batch of GA used for immunization. GAPDH and β-actin were used as reference genes.
(§2) Each of the three groups consisted of four female CSJLF1/JRj (Janvier Labs) mice, approximately 8-12 weeks of age. On Day 0, mice were immunized by injection of 0.1 mL injection volume into four footpads (about 10 μL into each of the front footpad, 40 μL into each of the hind footpad). The immunization contained a total dose of 250 μg of one lot of GA (Copaxone batch P53974)+CFA (0.5 mg/mL). On Day 10 post-immunization, lymph cells were isolated from animals and stimulated with enriched DCCM-1 (mock-stimulated vehicle control), 2.5 μg/mL Concanavalin A (ConA, a positive control) or GA.
(§3) Ten days following immunization, LN cell samples isolated from the immunized mice each were stimulated with 0.3, 1, 2.5, 5, 10, or 20 μg/mL of Copaxone batch P53974 as shown in Table 43.
(§4) Total RNA was isolated from stimulated LN cells after 6 hours of incubation at about 37° C. in a humidified CO2 incubator, using the SV 96 Total RNA Isolation System according to the manufacturer's protocol (Promega, Cat. #Z3500). cDNA was synthesized from each RNA sample in triplicate using High Capacity cDNA Reverse Transcription Kit (Life Technologies, formerly Applied Biosystems) according to the manufacturer's protocol.
(§5) Samples were prepared using TaqMan Universal PCR Master Mix II (Life Technologies) and run in 96-well plates using a Real-Time PCR system (7500, Life Technologies) using the following program for Real-Time PCR:
(§6) The levels of cytokine mRNA were calculated using a standard ΔΔCT method as described previously.

[1] = tested on: mouse IL-13 mRNA in primary LN cells; test: Mouse IL-13 mRNA in LN cells of Copaxone P53974-immunized CSJLF1/JRj mice stimulated with twelve GA lots (Example VIII); format: cell-based; details: stimulation conc. 2.5 μg/mL; normalized to B-Actin
Procedure: (§7) A real-time polymerase chain reaction method was used to measure the expression of IL-2, IL-4, IL-5, and IL-13 mRNA in LN cells, from GA-immunized mice, following stimulation with one of twelve GA lots. One lot of GA (Copaxone P53974) was used for immunization. […] Twenty female CSJLF1/JRj mice (Janvier Labs), approximately 8-12 weeks of age, were immunized by injection of 0.1 mL injection volume into four footpads (about 10 μL into each of the front footpad, 40 μL into each of the hind footpad) on Day 0. […] Samples were prepared using TaqMan Universal PCR Master Mix II (Life Technologies) and run in 96-well plates using a Real-Time PCR system (7500, Life Technologies) using the following RT-PCR program: The levels of cytokine mRNA were calculated using a standard ΔΔCT method as described previously.

[2] = tested on: mouse IL-17 mRNA in primary LN cells; test: Mouse IL-17 mRNA in LN cells of Copaxone P53974-immunized CSJLF1/JRj mice stimulated with GA lots (Example VIII); format: cell-based; details: stimulation conc. 2.5 μg/mL; for IL-17 mRNA/B-Actin Fold Change: normalized to B-Actin; for IL-17 mRNA/GAPDH Fold Change: normalized to GAPDH
Procedure: [The procedure below names another target; the source lists this target under the same test.] as §7

mIL-13 mRNA in LN cells = mIL-13 mRNA in LN cells of Copaxone P53974-immunized CSJLF1/JRj mice, three identical experiments (Example VII); format: cell-based, mouse; details: 2.5 μg/mL, 6 hours
Procedure: as §1, §2, §3, §4, §5, §6

mIL-4 mRNA in LN cells = mIL-4 mRNA in LN cells of Copaxone P53974-immunized CSJLF1/JRj mice, three identical experiments (Example VII); format: cell-based, mouse; details: 2.5 μg/mL, 6 hours
Procedure: as §1, §2, §3, §4, §5, §6

[3] = tested on: mouse IL-5 mRNA in primary LN cells; test: Mouse IL-5 mRNA in LN cells of Copaxone P53974-immunized CSJLF1/JRj mice stimulated with twelve GA lots (Example VIII); format: cell-based; details: stimulation conc. 2.5 μg/mL; for IL-5 mRNA/GAPDH Fold Change: normalized to GAPDH
Procedure: as §7

mIL-5 mRNA in LN cells = mIL-5 mRNA in LN cells of Copaxone P53974-immunized CSJLF1/JRj mice, three identical experiments (Example VII); format: cell-based, mouse; details: 2.5 μg/mL, 6 hours
Procedure: as §1, §2, §3, §4, §5, §6

[4] = relative to DCCM1 medium control

For “Concanavalin A [ConA, reference compound]”, the “IL-2 mRNA/Actβ Fold Change” value (mIL-2 mRNA in LN cells; Group 1) was 157.7 fold, the “IL-2 mRNA/GAPDH Fold Change” value (mIL-2 mRNA in LN cells; Group 1) was 102.9 fold and the “IL-2 mRNA/Actβ Fold Change” value (mIL-2 mRNA in LN cells; Group 2) was 137.4 fold. The “IL-2 mRNA/GAPDH Fold Change” value (mIL-2 mRNA in LN cells; Group 2) was 122.2 fold, the “IL-2 mRNA/Actβ Fold Change” value (mIL-2 mRNA in LN cells; Group 3) was 91.7 fold and the “IL-2 mRNA/GAPDH Fold Change” value (mIL-2 mRNA in LN cells; Group 3) was 55.8 fold. For the same substance, the “IL-13 mRNA/B-Actin Fold Change” value [1] was 29.3 fold, the “IL-17 mRNA/B-Actin Fold Change” value [2] was 133.2 fold and 224.2 fold and 128.3 fold and 204.1 fold and the “IL-17 mRNA/B-Actin Fold Change” value [2, 4] was 67.2 and 83.0 and 70.9 and 64.8. The “IL-17 mRNA/GAPDH Fold Change” value [2] was 125.8 fold and 208.6 fold and 139.9 fold and 213.0 fold, the “IL-17 mRNA/GAPDH Fold Change” value [2, 4] was 102.6 and 104.0 and 78.8 and 83.6 and the “IL-13 mRNA/Actβ Fold Change” value (mIL-13 mRNA in LN cells; Group 1) was 33.3 fold. The “IL-13 mRNA/GAPDH Fold Change” value (mIL-13 mRNA in LN cells; Group 1) was 24.1 fold, the “IL-13 mRNA/Actβ Fold Change” value (mIL-13 mRNA in LN cells; Group 2) was 28.4 fold and the “IL-13 mRNA/GAPDH Fold Change” value (mIL-13 mRNA in LN cells; Group 2) was 23.8 fold. The “IL-13 mRNA/Actβ Fold Change” value (mIL-13 mRNA in LN cells; Group 3) was 25.7 fold, the “IL-13 mRNA/GAPDH Fold Change” value (mIL-13 mRNA in LN cells; Group 3) was 17.8 fold and the “IL-4 mRNA/Actβ Fold Change” value (mIL-4 mRNA in LN cells; Group 1) was 54.5 fold. For the same substance, the “IL-4 mRNA/GAPDH Fold Change” value (mIL-4 mRNA in LN cells; Group 1) was 35.6 fold, the “IL-4 mRNA/Actβ Fold Change” value (mIL-4 mRNA in LN cells; Group 2) was 38.5 fold and the “IL-4 mRNA/GAPDH Fold Change” value (mIL-4 mRNA in LN cells; Group 2) was 34.2 fold. For the same substance, the “IL-4 mRNA/Actβ Fold Change” value (mIL-4 mRNA in LN cells; Group 3) was 35.7 fold, the “IL-4 mRNA/GAPDH Fold Change” value (mIL-4 mRNA in LN cells; Group 3) was 21.8 fold and the “IL-5 mRNA/B-Actin Fold Change” value ([3]; normalized to B-Actin) was 23.6 fold and 20.9 fold and 21.3 fold and 21.4 fold. The “IL-5 mRNA/GAPDH Fold Change” value [3] was 23.6 fold and 20.0 fold and 20.6 fold and 22.3 fold, the “IL-5 mRNA/GAPDH Fold Change” value ([3]; ΔΔCT) was 25.7 fold and 32.7 fold and 22.2 fold and 20.8 fold and 26.0 fold and 25.2 fold and 30.3 fold and 29.3 fold and the “IL-5 mRNA/Actβ Fold Change” value (mIL-5 mRNA in LN cells; Group 1) was 16.6 fold. The “IL-5 mRNA/GAPDH Fold Change” value (mIL-5 mRNA in LN cells; Group 1) was 12.0 fold, the “IL-5 mRNA/Actβ Fold Change” value (mIL-5 mRNA in LN cells; Group 2) was 25.4 fold and the “IL-5 mRNA/GAPDH Fold Change” value (mIL-5 mRNA in LN cells; Group 2) was 21.4 fold. The “IL-5 mRNA/Actβ Fold Change” value (mIL-5 mRNA in LN cells; Group 3) was 12.4 fold and the “IL-5 mRNA/GAPDH Fold Change” value (mIL-5 mRNA in LN cells; Group 3) was 8.6 fold.
